Reference: patent publication US20240131028A1, “CHEMOVACCINATION AGAINST PLASMODIUM INFECTION WITH SELECTIVE PLASMEPSIN X INHIBITORS” (Merck Sharp & Dohme LLC, priority 2021, published 2024)

tested on: ring stage parasites (Pf); assay: Parasite lactate dehydrogenase (LDH) growth assay (Parasite Assay, PfLDH Assay); type: cell-based, P. falciparum; details: Plasmodium falciparum, 72 h, Table 3; 72 hours growth, LDH readout; read-out: EC50

SMILES | EC50
Cc1ccc2c(c1)OC(C)(C)C[C@H]2NC(=O)[C@H]1C[C@@H]1[C@@H](c1cccnc1)N1C(=N)NC(C)(C)CC1=O [Example 85B] | 0.9 nM
CC1(C)CC(=O)N([C@H](c2cccnc2)[C@H]2C[C@@H]2C(=O)N[C@@H]2CC(C)(C)Oc3cccc(F)c32)C(=N)N1 [Example 86A] | 2.2 nM
CC1(C)CC(=O)N(C[C@H]2C[C@@H]2C(=O)N[C@H]2CC(C)(C)Oc3cccc(F)c32)C(=N)N1 [Example 87] | 160 nM
COCC[C@H]([C@H]1C[C@@H]1C(=O)N[C@H]1CC(C)(C)Oc2cccc(F)c21)N1C(=N)NC(C)(C)CC1=O [Example 88A] | 5.2 nM
COCC[C@H]([C@H]1C[C@@H]1C(=O)N[C@@H]1CC(C)(C)Oc2cccc(F)c21)N1C(=N)NC(C)(C)CC1=O [Example 88B] | 10 nM
COCC[C@H]([C@H]1C[C@@H]1C(=O)N[C@H]1CC(C)(C)Oc2cc(Cl)ccc21)N1C(=N)NC(C)(C)CC1=O [Example 89A] | 5.6 nM
COCC[C@H]([C@H]1C[C@@H]1C(=O)N[C@@H]1CC(C)(C)Oc2cc(Cl)ccc21)N1C(=N)NC(C)(C)CC1=O [Example 89B] | 22 nM
CC1(C)CC(=O)N(C[C@H]2C[C@@H]2C(=O)N[C@H]2CC(C)(C)Oc3cc(Cl)ccc32)C(=N)N1 [Example 90] | 225 nM
CC1(C)CC(=O)N([C@@H](c2cccnc2)[C@H]2C[C@@H]2C(=O)N[C@H]2CC(C)(C)Oc3cc(Cl)ccc32)C(=N)N1 [Example 91A] | 0.8 nM
CC1(C)CC(=O)N([C@H](c2cccnc2)[C@H]2C[C@@H]2C(=O)N[C@H]2CC(C)(C)Oc3cc(Cl)ccc32)C(=N)N1 [Example 91B] | 2.7 nM
CCC1(CC)CC(NC(=O)[C@H]2C[C@@H]2[C@@H](CCOC)N2C(=N)NC(C)(C)CC2=O)c2ccccc2O1 (stereo partly drawn) [Example 92A] | 7.6 nM
CC1(C)CC(=O)N([C@H](c2cccnc2)[C@H]2C[C@@H]2C(=O)NC2CC(C)(C)Oc3c(F)cccc32)C(=N)N1 (stereo partly drawn) [Example 93A] | 3.3 nM
CC1(C)CC(=O)N([C@H](c2cccnc2)[C@H]2C[C@@H]2C(=O)NC2CC(C)(C)Oc3c(Cl)cc(Cl)cc32)C(=N)N1 (stereo partly drawn) [Example 94A] | 0.9 nM
CC1(C)CC(=O)N(C[C@H]2C[C@@H]2C(=O)N[C@H]2CC(C)(C)Oc3ccc(Cl)cc32)C(=N)N1 [Example 95] | 110 nM
COc1cccc2c1C(NC(=O)[C@H]1C[C@@H]1[C@@H](c1cccnc1)N1C(=N)NC(C)(C)CC1=O)CC(C)(C)O2 (stereo partly drawn) [Example 96A] | 2.7 nM
CC1(C)CC(=O)N(C[C@H]2C[C@@H]2C(=O)NC2CC(C)(C)Oc3c(Cl)cc(Cl)cc32)C(=N)N1 (stereo partly drawn) [Example 97A] | 180 nM
CC1(C)CC(=O)N(C[C@H]2C[C@@H]2C(=O)NC2CC(C)(C)Oc3c(C(F)(F)F)ccc(F)c32)C(=N)N1 (stereo partly drawn) [Example 99] | 130 nM
CC1(C)CC(=O)N(C[C@H]2C[C@@H]2C(=O)N[C@H]2CC(C)(C)Oc3ccc(C(F)(F)F)cc32)C(=N)N1 [Example 100] | 170 nM
COCC[C@H]([C@H]1C[C@@H]1C(=O)N[C@H]1CC(C)(C)Oc2ccc(Cl)cc21)N1C(=N)NC(C)(C)CC1=O [Example 101] | 2.9 nM
CC[C@@]1(C)CC(=O)N([C@H](c2cncc(F)c2)[C@H]2C[C@@H]2C(=O)N[C@@H]2c3ccccc3OCC2(C)C)C(=N)N1 [Example 102A] | 0.8 nM
CC[C@@]1(C)CC(=O)N(C(c2cncc(F)c2)[C@H]2C[C@@H]2C(=O)N[C@@H]2c3ccccc3OCC2(C)C)C(=N)N1 (stereo partly drawn) [Example 102B] | 2.5 nM
COCC[C@H]([C@H]1C[C@@H]1C(=O)NC1CC(C)(C)Oc2c(Cl)cc(Cl)cc21)N1C(=N)NC(C)(C)CC1=O (stereo partly drawn) [Example 106A] | 7.4 nM
COCC[C@H]([C@H]1C[C@@H]1C(=O)N[C@H]1CC(C)(C)Oc2cccc(OC(F)(F)F)c21)N1C(=N)NC(C)(C)CC1=O [Example 107A] | 2.1 nM

SMILES | EC50
COCC[C@H]([C@H]1C[C@@H]1C(=O)N[C@@H]1CC(C)(C)Oc2cccc(OC(F)(F)F)c21)N1C(=N)NC(C)(C)CC1=O [Example 107B] | 11 nM
COCC[C@H]([C@H]1C[C@@H]1C(=O)N[C@@H]1CC(C)(C)Oc2ccc(C(F)(F)F)cc21)N1C(=N)NC(C)(C)CC1=O [Example 110A] | 21 nM
COCC[C@H]([C@H]1C[C@@H]1C(=O)N[C@H]1CC(C)(C)Oc2ccc(C(F)(F)F)cc21)N1C(=N)NC(C)(C)CC1=O [Example 110B] | 7.2 nM
COCC[C@H]([C@H]1C[C@@H]1C(=O)NC1CC(C)(C)Oc2c(F)cccc21)N1C(=N)NC(C)(C)CC1=O (stereo partly drawn) [Example 111A] | 24 nM
COCC[C@H]([C@H]1C[C@@H]1C(=O)NC1CC(C)(C)Oc2c(Cl)cccc21)N1C(=N)NC(C)(C)CC1=O (stereo partly drawn) [Example 112A] | 18 nM
COCC[C@H]([C@H]1C[C@@H]1C(=O)N[C@@H]1CC(C)(C)Oc2c(F)cc(F)cc21)N1C(=N)NC(C)(C)CC1=O [Example 113A] | 19 nM
COCC[C@H]([C@H]1C[C@@H]1C(=O)N[C@H]1CC(C)(C)Oc2c(F)cc(F)cc21)N1C(=N)NC(C)(C)CC1=O [Example 113B] | 7.5 nM
COCC[C@H]([C@H]1C[C@@H]1C(=O)N[C@@H]1CC(C)(C)Oc2c(C(F)(F)F)ccc(F)c21)N1C(=N)NC(C)(C)CC1=O [Example 114A] | 89 nM
COCC[C@H]([C@H]1C[C@@H]1C(=O)N[C@H]1CC(C)(C)Oc2c(C(F)(F)F)ccc(F)c21)N1C(=N)NC(C)(C)CC1=O [Example 114B] | 5.1 nM
CC1(C)CC(=O)N([C@H](c2cccnc2)[C@H]2C[C@@H]2C(=O)N[C@@H]2CC(C)(C)Oc3c(C(F)(F)F)ccc(F)c32)C(=N)N1 [Example 115A] | 6.6 nM
CC1(C)CC(=O)N([C@H](c2cccnc2)[C@H]2C[C@@H]2C(=O)N[C@H]2CC(C)(C)Oc3c(C(F)(F)F)ccc(F)c32)C(=N)N1 [Example 115B] | 1 nM
COCC[C@H]([C@H]1C[C@@H]1C(=O)N[C@H]1CC(C)(C)Oc2cccc(Cl)c21)N1C(=N)NC(C)(C)CC1=O [Example 116A] | 0.8 nM
COCC[C@H]([C@H]1C[C@@H]1C(=O)N[C@@H]1CC(C)(C)Oc2cccc(Cl)c21)N1C(=N)NC(C)(C)CC1=O [Example 116B] | 18 nM
CC1(C)CC(=O)N(C[C@H]2C[C@@H]2C(=O)N[C@H]2CC(C)(C)Oc3cccc(OC(F)(F)F)c32)C(=N)N1 [Example 118] | 63 nM
CC1(C)CC(=O)N(C[C@H]2C[C@@H]2C(=O)N[C@H]2CC(C)(C)Oc3cccc(Cl)c32)C(=N)N1 [Example 119] | 26 nM
CC1(C)CC(=O)N([C@H](c2cccnc2)[C@H]2C[C@@H]2C(=O)N[C@H]2CC(C)(C)Oc3ccc(Cl)cc32)C(=N)N1 [Example 120] | 1 nM
CC1(C)CC(=O)N([C@H](c2cccnc2)[C@H]2C[C@@H]2C(=O)NC2CC(C)(C)Oc3c(Cl)cccc32)C(=N)N1 (stereo partly drawn) [Example 121A] | 2.5 nM
CC1(C)CC(=O)N([C@H](c2cccnc2)[C@H]2C[C@@H]2C(=O)NC2CC(C)(C)Oc3c(F)cc(F)cc32)C(=N)N1 (stereo partly drawn) [Example 122A] | 2.3 nM
CC[C@]1(C)CC(=O)N([C@H](CCOC)[C@H]2C[C@@H]2C(=O)N[C@H]2CC(C)(C)Oc3ccc(C)cc32)C(=N)N1 [Example 123] | 2 nM
CC[C@]1(C)CC(=O)N([C@H](CCOC)[C@H]2C[C@@H]2C(=O)N[C@H]2CC(C)(C)Oc3ccc(Cl)cc32)C(=N)N1 [Example 124] | 0.8 nM
CC1(C)CC(=O)N(C[C@H]2C[C@@H]2C(=O)NC2CC(C)(C)Oc3ccc(OC(F)(F)F)cc32)C(=N)N1 (stereo partly drawn) [Example 125A] | 231 nM
COCC[C@H]([C@H]1C[C@@H]1C(=O)NC1CC(C)(C)Oc2ccc(OC(F)(F)F)cc21)N1C(=N)NC(C)(C)CC1=O (stereo partly drawn) [Example 126A] | 4.7 nM

same assay, conditions: Table 3; 72 hours growth, LDH readout; read-out: EC50

SMILES | EC50
CC1(C)CC(=O)N([C@H](c2cccnc2)[C@H]2C[C@@H]2C(=O)N[C@@H]2CC(C)(C)Oc3cccc(F)c32)C(=N)N1 [Example 86B] | 2.8 nM
CCC1(CC)CC(NC(=O)[C@H]2C[C@@H]2[C@@H](CCOC)N2C(=N)NC(C)(C)CC2=O)c2ccccc2O1 (stereo partly drawn) [Example 92B] | 7.2 nM
CC1(C)CC(=O)N([C@H](c2cccnc2)[C@H]2C[C@@H]2C(=O)NC2CC(C)(C)Oc3c(F)cccc32)C(=N)N1 (stereo partly drawn) [Example 93B] | 2.4 nM
COc1cccc2c1C(NC(=O)[C@H]1C[C@@H]1[C@@H](c1cccnc1)N1C(=N)NC(C)(C)CC1=O)CC(C)(C)O2 (stereo partly drawn) [Example 96B] | 3.3 nM
CC1(C)CC(=O)N(C[C@H]2C[C@@H]2C(=O)NC2CC(C)(C)Oc3c(Cl)cc(Cl)cc32)C(=N)N1 (stereo partly drawn) [Example 97B] | 220 nM
COCC[C@H]([C@H]1C[C@@H]1C(=O)NC1CC(C)(C)Oc2c(Cl)cc(Cl)cc21)N1C(=N)NC(C)(C)CC1=O (stereo partly drawn) [Example 106B] | 10 nM
COCC[C@H]([C@H]1C[C@@H]1C(=O)NC1CC(C)(C)Oc2c(F)cccc21)N1C(=N)NC(C)(C)CC1=O (stereo partly drawn) [Example 111B] | 15 nM
COCC[C@H]([C@H]1C[C@@H]1C(=O)NC1CC(C)(C)Oc2c(Cl)cccc21)N1C(=N)NC(C)(C)CC1=O (stereo partly drawn) [Example 112B] | 9.4 nM
CC1(C)CC(=O)N([C@H](c2cccnc2)[C@H]2C[C@@H]2C(=O)NC2CC(C)(C)Oc3c(Cl)cccc32)C(=N)N1 (stereo partly drawn) [Example 121B] | 2 nM
CC1(C)CC(=O)N([C@H](c2cccnc2)[C@H]2C[C@@H]2C(=O)NC2CC(C)(C)Oc3c(F)cc(F)cc32)C(=N)N1 (stereo partly drawn) [Example 122B] | 2.2 nM
CC1(C)CC(=O)N(C[C@H]2C[C@@H]2C(=O)NC2CC(C)(C)Oc3ccc(OC(F)(F)F)cc32)C(=N)N1 (stereo partly drawn) [Example 125B] | 160 nM
COCC[C@H]([C@H]1C[C@@H]1C(=O)NC1CC(C)(C)Oc2ccc(OC(F)(F)F)cc21)N1C(=N)NC(C)(C)CC1=O (stereo partly drawn) [Example 126B] | 8.4 nM
